Results reported in patent publication US20230149374A1, “METHODS AND COMPOSITIONS FOR TREATING ATHEROSCLEROSIS” (Sanford Burnham Prebys Medical Discovery Institute, priority 2021, published 2023).
Entries after “also recorded” stand apart in the source; their conditions may differ.

What was measured:
Format in all cases: in vivo, mouse
ApoE-deficient mice [1] = assay: Serum analyses (cholesterol, triglycerides, bile acids, IL-6, haptoglobin, glucose, LPS)
Description: (§1) Four cohorts of mice were used in these studies (FIGS. 8A and 9A). Cohorts 1 and 2 were devoted to the in vivo and ex vivo characterization of TNAP-associated plaque calcification. 6-week-old ApoE-deficient male mice were received at the animal facility and placed in conventional cages with 5 mice per cage. Mice were maintained on a 12-hrs light-dark cycle (7:00 am-7:00 pm) and were supplied with food and water ad libitum. From 10 weeks of age, they were fed ad libitum with a high fat diet (HFD, D12108C, Research Diets, New Brunswick, USA) containing 40% fat (kcal) and 1.25% cholesterol (weight). In cohort 1, 8 mice were sacrificed every 2 weeks between weeks 17 to 31, for histological and molecular analyses. Total body weight was measured weekly after starting the HFD. The sacrifice was done after anesthesia with isoflurane and intracardiac blood puncture by CO2 inhalation. Tissues were harvested as described below. The abdominal aorta was used for quantitative polymerase chain reaction (PCR) analyses. Mice from cohort 2 were used to analyze aorta calcification with ^18F—NaF μPET and μCT and to compare the in vivo data with the ex vivo results obtained in cohort 1. Animals were transferred from the animal facility to the Cermep imaging platform. Cohorts 3 and 4 were used to determine in vivo and ex vivo the impact of TNAP inhibition on the vasculature, liver, bones, and kidneys. According to the results obtained in cohorts 1 and 2, TNAP inhibitor SBI-425 (30 mg/kg/day, formulated as a food admixture in the HFD) was administered in a preventive manner from 10 weeks of age. Treatment was stopped at 25 weeks or 31 weeks of age. Plaque calcification was analyzed at 25 weeks, and possible side effects of TNAP inhibition were explored in mice aged 31 weeks. Mice in cohort 3 (2 groups of 13 mice) were used for ex vivo analysis, and mice in cohort 4 (2 groups of 12 mice) for in vivo imaging and ex vivo analyses.
After overnight fasting, blood was collected from mice by cardiac puncture under anesthesia with isoflurane. Serum was obtained through centrifugation of the blood for 15 min at 1,500 g at 4° C. and stored at −80° C. before analysis. Concentration of total cholesterol and triglycerides were measured using a colorimetric (MAK043, Sigma) and a fluorimetric assay (MAK266, Sigma), respectively. Total bile acids were assayed with a commercial enzyme-based colorimetric kit (Abcam Ab239702). Serum IL-6 and haptoglobin levels were determined using the commercially available ELISA kits (Fischer Scientific 10110623 and Abcam 157714, respectively). The alkaline phosphatase activity assay was performed in a 96-well plate. Briefly, sera were mixed with a concentrated buffer at a ratio of 2.85:1 (vol/vol) in order to get final concentration of 0.56 M 2-amino-2-methyl-1-propanol buffer pH 10.5, 1 mM MgCl2 and 10 mM p-nitrophenylphosphate. Absorbance was acquired for 5 min at 405 nm (Tecan plate reader). The slope was calculated to determine TNAP activity levels in each sample and normalized to protein amounts measured with the BCA protein assay (Pierce).

ApoE-deficient mice [2] = assay: Liver content of cholesterol, triglycerides, bile acids, hydroxyproline; details: 30 mg/kg/day, 25 weeks, vs control
Description: as §1
For the determination of cholesterol, triglycerides, and total bile acids in liver, 40-mg pieces of liver were homogenized in 1 mL of 5% NP40 solution in a dounce homogenizer. The hydrophobic components were extracted twice at 80° C. for 5 minutes. The samples were centrifuged, and the supernatants were assayed for cholesterol, triglycerides and bile acids with the same kits used for blood. In order to quantify hydroxyproline, 100 mg pieces of liver were homogenized in 1 mL of pure water in a dounce homogenizer and a perchlorate-free kit from Sigma was used (MAK357).

ApoE-deficient mice [3] = assay: NMR metabolomics of liver and kidney extracts; details: 30 mg/kg/day, vs control
Description: as §1, with “According to the results obtained in cohorts 1 and 2, TNAP inhibitor SBI-425 (30 mg/kg/day, formulated as a food admixture in the HFD) was administered in a preventive manner from 10 weeks of age. Treatment was stopped at 25 weeks or 31 weeks of age.” left out, “Mice in cohort 3 (2 groups of 13 mice) were used for ex vivo analysis, and mice in cohort 4 (2 groups of 12 mice) for in vivo imaging and ex vivo analyses.” left out
Liver and kidney extraction and NMR measurement: The frozen tissues were weighed and then extracted using the methanol-chloroform-water system [2:2:1.425 (v/v/v)]. […] Deuterated phosphate buffer at pH=7.4 (200 mM) was added to the dried aqueous extract with sodium 2,2,3,3-tetradeutero-3-trimethylsilylpropionate (TSP) (Sigma-Aldrich) as internal chemical shift and quantification reference. ^1H NMR spectra were recorded at 298 K on a Bruker Avance spectrometer 500 equipped with a 5-mm TCI cryoprobe. […]

ApoE-deficient mice [4] = assay: Tolerability: mortality and body weight; details: 30 mg/kg/day, treatment up to 21 weeks
Description: as §1, with “Cohorts 3 and 4 were used to determine in vivo and ex vivo the impact of TNAP inhibition on the vasculature, liver, bones, and kidneys. According to the results obtained in cohorts 1 and 2, TNAP inhibitor SBI-425 (30 mg/kg/day, formulated as a food admixture in the HFD) was administered in a preventive manner from 10 weeks of age. Treatment was stopped at 25 weeks or 31 weeks of age.” left out, “Mice in cohort 3 (2 groups of 13 mice) were used for ex vivo analysis, and mice in cohort 4 (2 groups of 12 mice) for in vivo imaging and ex vivo analyses.” left out

ApoE-deficient mice [5] = assay: Quantitative PCR of transcript levels in the liver; details: 30 mg/kg/day, 25 weeks, vs control
[6] = ApoE-deficient mice, 30 mg/kg/day, 25 weeks, fasting, vs control
[7] = ApoE-deficient mice, 30 mg/kg/day, 25 weeks, vs control

SMILES: COc1ccc(Cl)cc1S(=O)(=O)Nc1cncc(C(N)=O)c1 [SBI-425]
- serum levels of cholesterol (ApoE-deficient mice [1]; [6]): significantly decreased
- serum levels of triglycerides (TGs) (ApoE-deficient mice [1]; [6]): significantly decreased
- fasting glycemia (ApoE-deficient mice [1]; [7]): did not modulate
- serum IL-6 levels (ApoE-deficient mice [1]; [7]): reduced serum IL-6 levels, although not significantly
- serum bile acids levels (ApoE-deficient mice [1]; [7]): did not change
- serum haptoglobin levels (ApoE-deficient mice [1]; [7]): nor changed
- systemic inflammation (ApoE-deficient mice [1]; mouse experiments, administration for several months): did not significantly change
- liver TG content (ApoE-deficient mice [2]): not increased
- liver bile acids levels (ApoE-deficient mice [2]): did not change
- liver cholesterol levels (ApoE-deficient mice [2]): did not change
- liver hydroxyproline levels (liver fibrosis) (ApoE-deficient mice [2]): unchanged
- kidney phosphocholine levels (ApoE-deficient mice [3]; 25 weeks): increased
- liver phosphocholine levels (ApoE-deficient mice [3]; 25 weeks): decreased; also recorded: variations close to significance
- liver or kidney metabolism (metabolomics, PLS-DA) (ApoE-deficient mice [3]): did not evidence a significant impact; also recorded: did not significantly change
- body weight (ApoE-deficient mice [4]): no effect; also recorded: did not significantly change
- mortality (ApoE-deficient mice [4]): no effect
- Abcg8 transcript level, liver (ApoE-deficient mice [5]): did not change
- Cyp7a1 transcript level, liver (ApoE-deficient mice [5]): did not change
- Cyp7b1 transcript level, liver (ApoE-deficient mice [5]): did not change
- Fas transcript level (fatty acid synthesis), liver (ApoE-deficient mice [5]): nor were the levels of transcripts associated with fatty acid synthesis (Srebp1c, Fas) (FIGS. 6B-6G) changed
- Hmgcr transcript level, liver (ApoE-deficient mice [5]): did not change
- Hp transcript level (liver inflammation) (ApoE-deficient mice [5]): unchanged
- Il1b transcript level (liver inflammation) (ApoE-deficient mice [5]): unchanged
- Ly6g transcript level (liver inflammation) (ApoE-deficient mice [5]): unchanged
- Scarb1 transcript level, liver (ApoE-deficient mice [5]): did not change
- Srebp1c transcript level (fatty acid synthesis), liver (ApoE-deficient mice [5]): nor were the levels of transcripts associated with fatty acid synthesis (Srebp1c, Fas) (FIGS. 6B-6G) changed
- Tnfa transcript level (liver inflammation) (ApoE-deficient mice [5]): unchanged
